The values that follow come from article PMC12089509, “NorA Efflux Pump Inhibitors: Expanding SAR Knowledge of Pyrazolo[4,3‐c][1,2]benzothiazine 5,5‐Dioxide Derivatives” (Archiv Der Pharmazie, 2025).

As a reminder, the MIC is the smallest concentration in the dilution series that meets the test's criterion for growth inhibition. The low end stands for a more susceptible organism, the high end for a less susceptible organism. As a reminder, the inhibition is the change of the read-out against control, counted positive when it falls. For orientation: viability means a per cent measure of how many cells are alive, often set against a control.

In brackets after ≈: the same amount, converted by molar mass. Where two headings read alike, the source gives them in different places. Bounds are passed on as bounds.

Data set [1] relates to Staphylococcus aureus SA-1199B. The data set is described as follows: MIC determination (broth microdilution) against SA-1199B. It is filed as cell-based. As to conditions: SA1199B. From the text:
(§1) In this study, the S. aureus strains SA‐1199B (overexpressing norA) and its isogenic parent SA‐1199 (wild type), the pair SA‐K1902 (norA‐depleted) and SA‐K2378 (complemented with a pCU1 plasmid harboring the norA promoting and coding region from SA‐1199B), were used to test EPI activity as described in a previous study. Furthermore, the S. aureus ATCC 29213 was used as the reference strain in MIC determination experiments.
On the technique in general: Broth dilution looks for growth in wells or tubes with falling amounts of substance.

Data set [2] deals with S. aureus SA-K2378 (norA ++). The data set is described as follows: MIC evaluation against SA-K2378. It is filed as cell-based, Staphylococcus aureus. The conditions noted are these: for MIC: Staphylococcus aureus.
From the text: (§2) Conversely, interesting results were obtained against SA‐K2378, which overexpresses the norA gene (Table 2). […] This corroborates the hypothesis that their activity is strictly related to NorA EP inhibition.
as §1

For data set [3], the system named is S. aureus SA-K1902 (norA-). Put plainly: MIC evaluation against SA-K1902. It is filed as cell-based, Staphylococcus aureus. As to conditions: for MIC: Staphylococcus aureus.
From the text: as §2, §1

Data set [4] concerns Staphylococcus aureus SA-K2378 biofilm. It is filed as cell-based. From the text:
The formation of biofilms is a significant contributor to the development of AMR [1, 26, 27]. This is due to the fact that biofilms provide a protective environment for bacteria, thereby rendering them more resilient to the effects of common antibacterial agents. Over the years, several investigations have been conducted to study the role of EPs in the various stages of microbial biofilm formation. However, a definitive answer regarding the potential role of EPs in this microbial pathway remains elusive. While some studies have reported a negative effect of certain EPs on biofilm formation, others have highlighted the promising role of EPIs in limiting biofilm formation and enhancing the efficacy of antibiotics under biofilm conditions.
The biofilm production by SA‐K1902 and SA‐K2378 strains was analyzed in flat 96‐well microtiter plates as previously described, with some modifications. […] The microplates were incubated at 37°C for 24 h in static conditions. After incubation, the biofilms were washed three times with distilled water, dried at 60°C for 1 h, and stained with 0,1% crystal violet for 10 min. After staining, the crystal violet was removed and the wells were washed three times with water, dried at 37°C for 30 min, and the bound crystal violet was solubilized with 96% ethanol in shaking conditions. At the end of the destaining, the absorbance (570 nm) of the solutions in each well was measured using the FLUOstar Omega plate reader (BMG‐LABTECH, Germany) to quantify the biofilm produced in each condition compared with the control (biofilm produced by the strain without any compound/antibiotic). Biofilm assays were performed in triplicate for each condition.

For data set [5], the system named is S. aureus SA-K1902 (norA-). Put plainly: Checkerboard assay EPI/CPX against SA-K1902. It is filed as cell-based, Staphylococcus aureus. Here is the method:
(§3) Checkerboard assays were carried out using SA‐K1902 and SA‐K2378 strains according to standard procedures.

The target of data set [6] is T1, S. aureus NorA efflux pump (SA-1199B strain, overexpresses the norA gene) (Staphylococcus aureus, UniProt P0A0J7).
T1 construct: endogenous in cells; host or cells: S. aureus SA-1199B (overexpresses norA; isogenic parent SA-1199)
T1 sequence (P0A0J7 whole entry): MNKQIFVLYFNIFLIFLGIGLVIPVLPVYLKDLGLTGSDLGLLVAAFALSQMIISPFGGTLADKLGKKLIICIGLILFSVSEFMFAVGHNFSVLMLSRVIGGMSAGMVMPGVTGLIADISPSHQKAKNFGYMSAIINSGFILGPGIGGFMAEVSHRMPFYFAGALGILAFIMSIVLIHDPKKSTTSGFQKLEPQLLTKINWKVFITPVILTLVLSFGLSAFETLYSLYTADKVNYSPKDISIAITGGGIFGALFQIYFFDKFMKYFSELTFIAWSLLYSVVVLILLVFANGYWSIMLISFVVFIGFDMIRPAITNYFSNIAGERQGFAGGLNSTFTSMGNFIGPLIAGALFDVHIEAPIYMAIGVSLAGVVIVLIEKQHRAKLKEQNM
The data set is described as follows: EtBr efflux inhibition assay. It is filed as cell-based. As to conditions: for inhibition at 10 µM: read-out: EtBr efflux inhibition (%), compound at 10 µM, SA-1199B; for inhibition at 50 µM: read-out: EtBr efflux inhibition (%), compound at 50 µM, SA-1199B. Here is the method:
EtBr efflux inhibition assays were conducted using the S. aureus SA‐1199B strain, which overexpresses the norA gene and has an A116E GrlA substitution. Each compound was tested at 50 µM (see Figure 2). The starting hit compound 1 was used as the internal standard for comparison with the previously reported data.
The cells were grown overnight in cation‐supplemented Mueller–Hinton broth (CAMHB) without any additives at 35°C. The organisms were subsequently diluted into CAMHB to obtain an optical density at 600 nm (OD600) of 0.7–0.8. Subsequently, the cells were pelleted and resuspended at an OD600 of 0.8 in 0.5 mL aliquots of CAMHB containing EtBr and carbonyl cyanide m‐chlorophenylhydrazone (CCCP) to “load” the cells with EtBr (final concentrations of 25 μM for EtBr and 100 μM for CCCP). Following 20 min of incubation at room temperature, the cells were pelleted and resuspended in 1 mL of fresh CAMHB. Immediately thereafter, 200 μL aliquots were transferred into the wells of white 96‐well plates, which either lacked or contained 50 or 10 μM of each test compound. Fluorescence was monitored continuously using a microplate reader (Infinite M200 Pro, TECAN) at excitation and emission wavelengths of 485 and 645 nm, respectively, for a period of 5 min. The experiments were conducted in triplicate, with two technical replicates per biological replicate. The efflux activity of the SA‐1199B strain was expressed as a percentage of fluorescence decrease over a 5‐min time course. The inhibition of this efflux by the test compounds was determined using the following equation: ([efflux in the absence] ‐ [efflux in the presence of test [compound])/[efflux in the absence of test compound] × 100, which yielded the percent efflux inhibition observed.
^a Experiments were performed in triplicate with two technical replicates per biological replicate. Efflux activity of SA-1199B was expressed as percent fluorescence decrease over a 5 min time course. Inhibition of this efflux by test compounds was determined using the equation [efflux in the absence] − [efflux in the presence of test [compound]/[efflux in the absence of test compound] × 100, giving the percent efflux inhibition observed.

Data set [7] can be described thus: MTT cytotoxicity assay on MCF7. It is filed as cell-based. The conditions noted are these: human, MCF7 cells, read-out: Cytotoxicity (% cell viability). Here is the method:
(§4) The MTT assay was performed on two human ATCC cell lines, that is, […] (CCL‐185) and MCF7 (HTB‐22), to test the potential cytotoxic effect of the compounds, after 72 h exposure, as previously described. Each compound was tested at concentrations ranging from 12.5 to 100 μg/mL. Untreated cells were considered as controls. The percentage of viable cells was calculated as follows: % Cell viability = 100 × treated well absorbance/untreated control well absorbance. All assays were performed once in technical quadruplicate.
(In general: Tetrazolium dyes change colour on reduction, which living cells bring about.)

Data set [8] concerns Staphylococcus aureus SA-1199B. It is filed as cell-based. From the text:
For purposes of comparison, compound 1 was included as a reference.

The test system of data set [9] is S. aureus SA-K2378 (norA ++). Put plainly: Checkerboard assay EPI/CPX against SA-K2378. It is filed as cell-based, Staphylococcus aureus. As for the experimental part: as §2, §3
Data set [10] in a line: MTT cytotoxicity assay on A549. It is filed as cell-based. The conditions noted are these: human, A549 cells, read-out: Cytotoxicity (% cell viability). As for the experimental part: as §4
In data set [11] the test system is S. aureus SA-1199 (wild type). Put plainly: Synergistic assay with CPX against wild-type SA-1199. It is filed as cell-based, Staphylococcus aureus. The conditions noted are these: EPI at 3.13 µg/mL with CPX. From the text:
(§5) This finding aligns with their mechanism of action, which involves the inhibition of NorA, which is only basally expressed in the wild‐type SA‐1199 strain.

The test system of data set [12] is S. aureus SA-1199 (wild type). Put plainly: MIC determination against wild-type SA-1199. It is filed as cell-based. As to conditions: Staphylococcus aureus, compound alone.
From the text: as §5

With `O=C(O)c1cn(C2CC2)c2cc(N3CCNCC3)c(F)cc2c1=O` [CPX, ciprofloxacin, reference compound], the MIC in data set [1] amounted to 10 µg/mL (≈ 30.2 µM). Moreover, the “CPX MIC” value came to 1.25 µg/mL in data set [2] (CPX alone, SA-K2378 (norA ++)) and 0.15 µg/mL in [3] (CPX alone, SA-K1902 (norA-)). Moreover, in data set [4] (CPX alone at ½ MIC, vs untreated control), the “increase in biofilm formation” value is 42%.
For the molecule `O=[N+]([O-])c1ccc(-n2nc(-c3ccc(Cl)cc3)c3c2-c2ccccc2S(=O)(=O)N3)cc1` [Compound 1, reference compound], the results for the MIC in [1], in data set [2] and in [3] were 50 µg/mL (≈ 110 µM), 12.5 µg/mL (≈ 27.6 µM) and 12.5 µg/mL (≈ 27.6 µM), respectively. Also, the “CPX MIC” value in data set [5] (EPI at 0.8 µg/mL) was 0.15 µg/mL; in data set [5] (EPI at 1.6 µg/mL), 0.15 µg/mL; in data set [5] (EPI at 3.13 µg/mL) it was 0.15 µg/mL; in [9] (EPI at 0.8 µg/mL) it was 0.6 µg/mL; in data set [9] (EPI at 1.6 µg/mL), 0.3 µg/mL; in [9] (EPI at 3.13 µg/mL), 0.3 µg/mL. In addition, the “N° CPX MIC reduction” value was 0 in data set [5] (EPI at 0.8 µg/mL); 0 in data set [5] (EPI at 1.6 µg/mL); 0 in [5] (EPI at 3.13 µg/mL); 2 in data set [9] (EPI at 0.8 µg/mL); 4 in [9] (EPI at 1.6 µg/mL); 4 in data set [9] (EPI at 3.13 µg/mL). Further, the inhibition at 10 µM in data set [6] amounted to 0%. The inhibition at 50 µM in [6] was 77%. The viability at 72 h, 12.5 µg/mL in data set [7] (MCF7, 12.5 μg/mL) came to 81 ± 6%; in data set [10] (A549, 12.5 μg/mL), 90 ± 16%. Also, the viability at 72 h, 25 µg/mL was determined as 71 ± 3% in data set [7] (MCF7, 25 μg/mL) and 76 ± 1% in data set [10] (A549, 25 μg/mL). The viability at 72 h, 50 µg/mL is 50 ± 3% in data set [7] (MCF7, 50 μg/mL) and 32 ± 5% in [10] (A549, 50 μg/mL). The viability at 72 h, 100 µg/mL in data set [7] (MCF7, 100 μg/mL) came to 43 ± 3%; in data set [10] (A549, 100 μg/mL), 8 ± 1%. The “N° fold CPX MIC reduction” value in data set [8] (EPI at 3.12 µg/mL) was determined as 2 fold; in data set [8] (EPI at 6.25 µg/mL) it was 8 fold; in data set [8] (EPI at 12.5 µg/mL), 16 fold.
Take `CN1c2c(-c3ccc(F)cc3)nn(C)c2-c2ccc(OCCN3CCOCC3)cc2S1(=O)=O` [Compound 19, 3‐(4‐Fluorophenyl)‐1,4‐dimethyl‐7‐(2‐morpholin‐4‐ylethoxy)‐1,4‐dihydropyrazolo[4,3‐c][1,2]benzothiazine 5,5‐dioxide]: the MIC in data set [1] is greater than 50 µg/mL; in data set [2], 25 µg/mL (≈ 52.9 µM); in [3], greater than 50 µg/mL; in [12], greater than 50 µg/mL. The “CPX MIC” value in [5] (EPI at 0.2 µg/mL), in data set [5] (EPI at 0.4 µg/mL), in [5] (EPI at 0.8 µg/mL), in data set [5] (EPI at 1.6 µg/mL), in data set [5] (EPI at 3.13 µg/mL) and in data set [5] (EPI at 6.25 µg/mL) was 0.08 µg/mL throughout. The “CPX MIC” value in data set [5] (EPI at 12.5 µg/mL) was 0.15 µg/mL; in data set [9] (EPI at 0.2 µg/mL) it was 0.3 µg/mL; in [9] (EPI at 0.4 µg/mL), 0.3 µg/mL; in data set [9] (EPI at 0.8 µg/mL), 0.3 µg/mL; in data set [9] (EPI at 1.6 µg/mL), 0.3 µg/mL; in data set [9] (EPI at 3.13 µg/mL), 0.3 µg/mL. Moreover, in data set [9] (EPI at 6.25 µg/mL), the “CPX MIC” value was 0.16 µg/mL. The “N° CPX MIC reduction” value in data set [5] (EPI at 0.2 µg/mL), in data set [5] (EPI at 0.4 µg/mL), in [5] (EPI at 0.8 µg/mL), in data set [5] (EPI at 1.6 µg/mL), in [5] (EPI at 3.13 µg/mL) and in data set [5] (EPI at 6.25 µg/mL) was 2 in each case. For the same molecule, the “N° CPX MIC reduction” value was found to be 0 in data set [5] (EPI at 12.5 µg/mL); 4 in [9] (EPI at 0.2 µg/mL); 4 in [9] (EPI at 0.4 µg/mL); 4 in [9] (EPI at 0.8 µg/mL); 4 in data set [9] (EPI at 1.6 µg/mL); 4 in data set [9] (EPI at 3.13 µg/mL). In addition, in data set [9] (EPI at 6.25 µg/mL), the “N° CPX MIC reduction” value is recorded as 8. For the same molecule, the inhibition at 10 µM in [6] stood at 34%. The inhibition at 50 µM in data set [6] was greater than 70%. Further, the “effect on biofilm formation in combination with CPX” value in [4] (EPI at 0.2 µg/mL combined with CPX, SA-K2378) is “no positive effects”. In data set [11], the “synergistic effect with CPX” value is recorded as “did not show any synergistic effect”. Also, the “N° fold CPX MIC reduction” value in data set [8] (EPI at 3.12 µg/mL) is listed as 2 fold; in [8] (EPI at 12.5 µg/mL), 4 fold.
